The values below come from patent US9951065B2 (Gilead Sciences, Inc., priority 2015, dated 2018).

SMILES strings stand for the structures.

As a reminder, the EC50 is the midpoint of the concentration-response curve. Read a low EC50 as greater potency.

T1 sequence (P14902 whole entry): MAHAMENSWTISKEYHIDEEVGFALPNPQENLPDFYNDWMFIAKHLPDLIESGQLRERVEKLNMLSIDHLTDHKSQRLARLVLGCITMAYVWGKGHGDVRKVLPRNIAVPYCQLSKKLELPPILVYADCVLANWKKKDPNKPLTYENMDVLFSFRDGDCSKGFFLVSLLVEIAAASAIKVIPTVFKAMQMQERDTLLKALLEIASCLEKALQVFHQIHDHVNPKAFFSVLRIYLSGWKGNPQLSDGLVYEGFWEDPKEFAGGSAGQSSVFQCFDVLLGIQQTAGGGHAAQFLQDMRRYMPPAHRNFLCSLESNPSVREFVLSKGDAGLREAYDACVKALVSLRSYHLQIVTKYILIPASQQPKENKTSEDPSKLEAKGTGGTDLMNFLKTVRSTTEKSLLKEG

One test has as its target T1, IDO1 (Homo sapiens, UniProt P14902).
T1 construct: HeLa cells were treated with a test compound in the presence of IFNγ, which induces IDO1 expression; host or cells: H1-HeLa cells, IDO1 induced with IFNγ
The test can be described thus: Cell-based (HeLa) assay for measurement of IDO1 inhibition (kynurenine levels in supernatant after IFNγ induction). The note with it: HeLa cells, IFNγ-induced IDO1, kynurenine in supernatant after 48 hour incubation; geometric mean of a minimum of four determinations. The essentials: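 HeLa cells, 1,250 per well, treated with compound (0.5% DMSO final) plus IFNγ to induce IDO1, for 48 h. Supernatant kynurenine measured by TCA hydrolysis at 60 °C, then p-dimethylaminobenzaldehyde, absorbance 480 nm. EC50 from a four-parameter fit normalized to −/+IFNγ controls; geometric mean of at least four runs.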
`O/N=C(\Nc1ccc(F)c(Cl)c1)c1ccnc2nc(CNCCc3ccccn3)[nH]c12` [Example 125, N-(3-Chloro-4-fluorophenyl)-N′-hydroxy-2-(((2-(pyridin-2-yl)ethyl)amino)methyl)-1H-imidazo[4,5-b]pyridine-7-carboximidamide] yielded an EC50 of 2080 nM.
In turn, `O/N=C(\Nc1ccc(F)c(Cl)c1)c1ccnc2nc(NCCN3CC[C@H](O)C3)[nH]c12` [Example 279, (S)—N-(3-chloro-4-fluorophenyl)-N′-hydroxy-2-((2-(3-hydroxypyrrolidin-1-yl)ethyl)amino)-1H-imidazo[4,5-b]pyridine-7-carboximidamide] yielded an EC50 of 5280 nM.
Consider `COCCNCc1nc2nccc(/C(=N/O)Nc3ccc(F)c(Cl)c3)c2[nH]1` [Example 124, N-(3-Chloro-4-fluorophenyl)-N′-hydroxy-2-(((2-methoxyethyl)amino)methyl)-1H-imidazo[4,5-b]pyridine-7-carboximidamide], for which the half-maximal effective concentration (EC50) is 2060 nM.
Molecule `OCCc1nc2nccc(/C(=N/O)Nc3ccc(F)c(Cl)c3)c2[nH]1` [Example 183, N-(3-Chloro-4-fluorophenyl)-N′-hydroxy-2-(2-hydroxyethyl)-1H-imidazo[4,5-b]pyridine-7-carboximidamide] yielded an EC50 of 2400 nM.
As for `N#Cc1cc(N/C(=N\O)c2ccnc3nc[nH]c23)ccc1F` [Example 90, N-(3-Cyano-4-fluorophenyl)-N′-hydroxy-1H-imidazo[4,5-b]pyridine-7-carboximidamide], the response was half-maximal at 1050 nM (EC50).
On the same count and under the same terms, under `O/N=C(\Nc1ccc(F)c(Cl)c1)c1ccnc2nc(CCN3CCCC3)[nH]c12` [Example 193, N-(3-Chloro-4-fluorophenyl)-N′-hydroxy-2-(2-(pyrrolidin-1-yl)ethyl)-1H-imidazo[4,5-b]pyridine-7-carboximidamide] stands 358 nM; under `O/N=C(\Nc1ccccc1)c1ccnc2nc[nH]c12` [Example 100, N′-hydroxy-N-phenyl-1H-imidazo[4,5-b]pyridine-7-carboximidamide], 770 nM; under `Nc1nc2c(F)c(F)cc(/C(=N/O)Nc3cccc(Cl)c3)c2[nH]1` [Example 16, 2-Amino-N-(3-chlorophenyl)-4,5-difluoro-N′-hydroxy-1H-benzo[d]imidazole-7-carboximidamide], 607 nM.
Take `COCCCNCc1nc2c(F)c(F)cc(/C(=N/O)Nc3cccc(Cl)c3)c2[nH]1` [Example 24, N-(3-Chlorophenyl)-4,5-difluoro-N′-hydroxy-2-(((3-methoxypropyl)amino)methyl)-1H-benzo[d]imidazole-7-carboximidamide]: it took 1920 nM to reach a half-maximal effect (EC50).
Turning to `O/N=C(\Nc1cccc(Cl)c1)c1ccnc2nc(CCN3CCCC3)[nH]c12` [Example 268, N-(3-chlorophenyl)-N′-hydroxy-2-(2-(pyrrolidin-1-yl)ethyl)-1H-imidazo[4,5-b]pyridine-7-carboximidamide], the EC50 is 952 nM.
The same measure, in the same setting: with `O/N=C(\Nc1cc(Cl)c(F)c(Cl)c1)c1ccnc2nc[nH]c12` [Example 63, N-(3,5-Dichloro-4-fluorophenyl)-N′-hydroxy-1H-imidazo[4,5-b]pyridine-7-carboximidamide] the figure was 774 nM; with `CCNCCc1nc2nccc(/C(=N/O)Nc3ccc(F)c(Cl)c3)c2[nH]1` [Example 204, N-(3-chloro-4-fluorophenyl)-2-(2-(ethylamino)ethyl)-N′-hydroxy-3H-imidazo[4,5-b]pyridine-7-carboximidamide], 2190 nM.
Same read-out and setting: with `O/N=C(\Nc1cc(Br)ccc1F)c1ccnc2nc[nH]c12` [Example 71, N-(5-Bromo-2-fluorophenyl)-N′-hydroxy-1H-imidazo[4,5-b]pyridine-7-carboximidamide] the figure was 207 nM.

Still in this test, the particulars now being: HeLa cells, IFNγ-induced IDO1, kynurenine in supernatant, 48 hour incubation; geometric mean of a minimum of four determinations.
`CN(C)C1(CNc2nc3c(F)c(F)cc(/C(=N/O)Nc4ccc(F)c(Cl)c4)c3[nH]2)CCCCC1` [Example 450, N-(3-chloro-4-fluorophenyl)-2-(((1-(dimethylamino)cyclohexyl)methyl)amino)-4,5-difluoro-N′-hydroxy-1H-benzo[d]imidazole-7-carboximidamide] displayed an EC50 of 1590 nM.
For the molecule `O/N=C(\Nc1ccc(F)c(Cl)c1)c1cc(F)c(F)c2nc(NCCN3CCC[C@H]3C(F)(F)F)[nH]c12` [Example 470, (S)-N-(3-chloro-4-fluorophenyl)-4,5-difluoro-N′-hydroxy-2-((2-(2-(trifluoromethyl)pyrrolidin-1-yl)ethyl)amino)-1H-benzo[d]imidazole-7-carboximidamide], a half-maximal effect (EC50) was put at 4200 nM.
On the same count and under the same terms, with `CN1[C@@H]2CCC(Nc3nc4c(F)c(F)cc(/C(=N/O)Nc5ccc(F)c(Cl)c5)c4[nH]3)[C@H]1CC2` (stereo partly drawn) [Example 469, N-(3-chloro-4-fluorophenyl)-4,5-difluoro-N′-hydroxy-2-(((1R,5R)-8-methyl-8-azabicyclo[3.2.1]octan-2-yl)amino)-1H-benzo[d]imidazole-7-carboximidamide] the figure was 959 nM; with `CN1CC(N)[C@H](Nc2nc3c(F)c(F)cc(/C(=N/O)Nc4ccc(F)c(Cl)c4)c3[nH]2)C1` (stereo partly drawn) [Example 435, 2-(((3R)-4-amino-1-methylpyrrolidin-3-yl)amino)-N-(3-chloro-4-fluorophenyl)-4,5-difluoro-N′-hydroxy-1H-benzo[d]imidazole-7-carboximidamide], 1810 nM; with `CN(C)[C@H]1CCCC[C@@H]1Nc1nc2c(F)c(F)cc(/C(=N/O)Nc3ccc(F)c(Cl)c3)c2[nH]1` [Example 444, N-(3-chloro-4-fluorophenyl)-2-(((1S,2S)-2-(dimethylamino)cyclohexyl)amino)-4,5-difluoro-N′-hydroxy-1H-benzo[d]imidazole-7-carboximidamide], 3140 nM.
Same read-out and setting: with `CN(C)[C@@H]1CCC[C@H](Nc2nc3c(F)c(F)cc(/C(=N/O)Nc4ccc(F)c(Cl)c4)c3[nH]2)C1` [Example 440, N-(3-chloro-4-fluorophenyl)-2-(((1S,3R)-3-(dimethylamino)cyclohexyl)amino)-4,5-difluoro-N′-hydroxy-1H-benzo[d]imidazole-7-carboximidamide] the figure was 6660 nM; with `OCCN(CCNc1nc2nccc(/C(=N/O)Nc3ccc(F)c(Cl)c3)c2[nH]1)C1CC1` [Example 407, N-(3-chloro-4-fluorophenyl)-2-((2-(cyclopropyl(2-hydroxyethyl)amino)ethyl)amino)-N′-hydroxy-1H-imidazo[4,5-b]pyridine-7-carboximidamide], 2120 nM; with `O/N=C(\Nc1ccc(F)c(Cl)c1)c1cc(F)c(F)c2nc(N[C@@H]3CNC[C@@H]3O)[nH]c12` [Example 468, N-(3-chloro-4-fluorophenyl)-4,5-difluoro-N′-hydroxy-2-(((3R,4S)-4-hydroxypyrrolidin-3-yl)amino)-1H-benzo[d]imidazole-7-carboximidamide], above 10000 nM.
`N[C@@H]1CCCC[C@@H]1Nc1nc2c(F)c(F)cc(/C(=N/O)Nc3ccc(F)c(Cl)c3)c2[nH]1` [Example 474, 2-(((1S,2R)-2-aminocyclohexyl)amino)-N-(3-chloro-4-fluorophenyl)-4,5-difluoro-N′-hydroxy-1H-benzo[d]imidazole-7-carboximidamide] returned an EC50 of 7580 nM.
As to `CN1CCN(CCNc2nc3c(F)c(F)cc(/C(=N/O)Nc4ccc(F)c(Cl)c4)c3[nH]2)CC1=O` [Example 449, N-(3-chloro-4-fluorophenyl)-4,5-difluoro-N′-hydroxy-2-((2-(4-methyl-3-oxopiperazin-1-yl)ethyl)amino)-1H-benzo[d]imidazole-7-carboximidamide], the midpoint of the response, the EC50, lay at 6250 nM.
